Consider 63 molecules from PubChem BioAssay AID489006 (Sanford-Burnham Center for Chemical Genomics, 2010).

The source made the active and inactive calls. The rule behind the calls is not given here.

A word on the IC50: it is the concentration that gives 50% inhibition.

This experiment deals with Jurkat NF-kB reporter, luminescence. The experiment is described as follows: NF-kB reporter inhibition in Jurkat cells, dose response, selectivity assay for B-cell receptor NF-kB inhibitor project, cell-based, luminescence (AID 489006).

For the molecule `OCCN1CCN(C(=S)c2ccc(-c3ccccc3)cc2)CC1`, the IC50 is 7.07 µM.

As for `COc1ccc(NC(=O)c2cc(-c3ccccn3)nc3ccccc23)cc1S(=O)(=O)N(C)C`, the IC50 is 26.6 µM (inactive).

`CC(=C\c1ccccc1)/C=C1/SC(=O)N(CCCC(=O)Nc2ccc(C(=O)O)cc2)C1=O`: the IC50 was > 80 µM (inactive).

On to `Cc1cc(-c2cc(C(=O)NCc3ccccc3)on2)nc(S(C)(=O)=O)n1`, for which the IC50 is 3.91 µM.

Regarding `C[C@H]1CCC/C=C/[C@@H]2C[C@H](O)C[C@H]2[C@H](O)/C=C/C(=O)O1`, the IC50 is > 80 µM (inactive).

As for `CC(C)c1ccc(/C=C2\SC(=S)N(CCC(=O)N3CCCCC3CCO)C2=O)cc1` (stereo not drawn), the IC50 is 0.33 µM.

For `CCN(CC(=O)Nc1c(F)cccc1F)C(=O)c1cc([N+](=O)[O-])ccc1N1CCCCC1`, the IC50 was > 80 µM (inactive).

For the molecule `Cc1c(CCC(=O)N2CCC[C@H]2C(=O)O)c(=O)oc2cc3oc4c(c3cc12)CCCC4`, the IC50 is > 80 µM (inactive).

Take `CCn1c(=O)cc(SCC(=O)N2CCOCC2)c2ccccc21`: the IC50 is > 80 µM (inactive).

On to `O=C(CCCN1C(=O)/C(=C/c2ccccc2Cl)SC1=S)NNC(=O)c1ccccc1`, for which the IC50 was 5.2 µM.

Take `Cc1ccc(C(=O)C[n+]2cc(-c3ccc(C)cc3)n3c2CCCCC3)cc1`: the 50% inhibitory concentration (IC50) is 8.37 µM.

Regarding `CC1CCC/C=C/C2CC(O)CC2C(O)/C=C/C(=O)O1` (stereo not drawn), the IC50 was > 80 µM (inactive).

In the case of `Cc1ccc(C(=O)N2CCCC(c3ccc(Cl)cc3)=N2)cc1`, the IC50 is > 80 µM (inactive).

With `CCOc1ccc(-c2nc(CSCC(=O)NCc3ccco3)c(C)o2)cc1`, the IC50 is 64 µM (inactive).

For the molecule `O=C(CN1C(=O)c2ccccc2S1(=O)=O)N1CCc2ccccc21`, the IC50 was 1.76 µM.

For the molecule `COc1ccc(/C=C2\SC(=S)N(CCC(=O)Nc3ccc(O)cc3)C2=O)cc1`, the IC50 is > 80 µM (inactive).

Turning to `CC(C)(C)c1ccc(-c2cc(N)n[nH]2)cc1`, the half-maximal inhibitory concentration (IC50) was 6.02 µM.

In the case of `N=c1c2c(n(Cc3ccc(Cl)cc3Cl)c3c1CCC3)CCCC2`, the IC50 is 16.2 µM.

For the molecule `Cc1cc(C)c(S(=O)(=O)NCc2ccncc2)c(C)c1`, the IC50 was > 80 µM (inactive).

Consider `Cc1ccc(-c2nn3c(C)nnc3c3ccccc23)cc1S(=O)(=O)NCCN1CCOCC1`, for which the IC50 is > 80 µM (inactive).

For `Cn1c(=O)n(C)c2cc(NS(=O)(=O)c3ccccc3)ccc21`, the IC50 is 51.8 µM (inactive).

With `CCn1c(=O)cc(OCC(=O)Nc2ccc(OC)c(OC)c2)c2ccccc21`, the IC50 was > 80 µM (inactive).

With `COc1ccc(-c2noc(N3CCC(C(=O)Nc4ccc(OC)c(OC)c4)CC3)n2)cc1`, the IC50 was > 80 µM (inactive).

For the molecule `Cc1ccc(C(=O)OCC(=O)N(CC(C)C)c2c(N)n(Cc3ccccc3)c(=O)[nH]c2=O)o1`, the IC50 is > 80 µM (inactive).

As to `COC(=O)[C@@H]1Cc2c([nH]c3ccccc23)C(C)(C)N1C(=O)CCl`, the half-inhibitory concentration (IC50) was 1.73 µM.

For `CN1CCN(C(=O)c2ccccc2N(Cc2ccccc2)S(=O)(=O)c2ccccc2)CC1`, the IC50 was > 80 µM (inactive).

Consider `CCOc1ccc(/C=C2\SC(=S)N(CCC(=O)Nc3ccc(C(=O)O)cc3)C2=O)cc1`, for which the IC50 was > 80 µM (inactive).

For the molecule `CN(C)S(=O)(=O)c1ccc(NC(=O)N2CCN(c3ccccc3)CC2)cc1`, the IC50 was > 80 µM (inactive).

With `CC1=CC(C)(C)Nc2ccc(OC(=O)c3cccnc3)cc21`, the IC50 was 1.17 µM.

`CCn1c(=O)cc(SCC(=O)N2CCN(C(=O)c3ccco3)CC2)c2ccccc21`: the IC50 was > 80 µM (inactive).

Turning to `CCC(C)(C)c1ccc(OCCCC[n+]2ccccc2)c(C(C)(C)CC)c1`, the IC50 was 5.79 µM.

As for `CCc1ccc(/C=C2/SC(=S)N(CCC(=O)Nc3cccc(C(=O)O)c3)C2=O)cc1`, the IC50 was > 80 µM (inactive).

Take `Cc1ccc(/C=C2\SC(=S)N(CCCC(=O)Nc3cccnc3)C2=O)cc1`: the 50% inhibitory concentration (IC50) was 6.11 µM.

For `CCCNC(=O)CSCc1nc(-c2ccc(SC)cc2)oc1C`, the IC50 was > 80 µM (inactive).

As to `CCOC(=O)N1CCN(CC(=O)Nc2ccc([N+](=O)[O-])cc2C(=O)Nc2ccccc2F)CC1`, the IC50 was 33.1 µM (inactive).

Regarding `CCOc1ccc(-c2nnc(SCC(=O)NC3CC3)o2)cc1`, the IC50 was 54.2 µM (inactive).

Turning to `O=C(CCl)N1CCN(S(=O)(=O)c2ccc3c(c2)CCC3)CC1`, the IC50 was 2.16 µM.

`CCOC(=O)CNC(=O)CSc1nnc(NC(=O)c2ccc(C)cc2)s1`: the half-maximal inhibitory concentration (IC50) is 5.88 µM.

With `O=C(O)CCn1c(O)c(C=C2N=c3ccccc3=N2)sc1=S`, the IC50 was 1.46 µM.

Take `O=C(c1cc2nc(-c3ccccc3)cc(-c3ccccc3)n2n1)N1CCN(C(=O)c2ccco2)CC1`: the IC50 is 31 µM (inactive).

On to `Cn1nc(-c2ccc(Cl)cc2)c2cc(C(=O)N3CCCC3)sc21`, for which the IC50 was > 80 µM (inactive).

As to `O=C(Oc1cccc(/C=N/Nc2nc(N3CCOCC3)nc(N3CCOCC3)n2)c1)c1ccco1`, the IC50 was > 80 µM (inactive).

For the molecule `O=C(NNC(=O)C12CC3CC(CC(C3)C1)C2)c1cccc(O)c1`, the IC50 was > 80 µM (inactive).

In the case of `O=C(Nc1cccc(S(=O)(=O)Nc2ccc(Cl)cc2)c1)c1ccc(Cl)nc1`, the IC50 was 25.7 µM (inactive).

In the case of `CCN(CC(=O)Nc1c(F)cccc1F)C(=O)c1cc(S(=O)(=O)N(CC)CC)ccc1N1CCCCC1`, the IC50 is > 80 µM (inactive).

As to `Cc1cc(C)c2nc(NC(=O)C3CSC4(C)CCC(=O)N34)sc2c1` (stereo not drawn), the IC50 was 76.5 µM (inactive).

For the molecule `CCn1c(CN2CCN(c3ccc(Cl)cc3)CC2)nc2ccccc21`, the IC50 is 39.9 µM (inactive).

On to `Cc1ccc(/C=C2/SC(=S)N(CCCC(=O)Nc3ccc(O)cc3)C2=O)cc1`, for which the IC50 is 19.8 µM.

For `O=C(NCCC1CCCCN1S(=O)(=O)c1ccc(Cl)cc1)C(=O)NCc1ccncc1` (stereo not drawn), the IC50 was > 80 µM (inactive).

With `CCOC(=O)C1CCN(c2ncnc3c2cnn3-c2ccc(Cl)cc2)CC1`, the IC50 is 0.39 µM.

Turning to `CC(C)(C)c1ccc(-c2nnc(SCC(=O)NC3CC3)o2)cc1`, the IC50 is > 80 µM (inactive).

`CCOC(=O)/C=C(\C)Sc1cc(=O)oc2ccccc12`: the IC50 was 4 µM.

`Cn1c(=O)cc(OCCCC(=O)NC2CCCC2)c2ccccc21`: the IC50 was 39.5 µM (inactive).

`COc1ccccc1/C=C1\SC(=S)N(CCC(=O)Nc2nnc(C)s2)C1=O`: the IC50 is > 80 µM (inactive).

On to `O=C1CCC2S/C(=C/Nc3ccc(C(F)(F)F)cc3)C(=O)N12` (stereo not drawn), for which the IC50 was 0.18 µM.

`ClCc1nnc(-c2ccccc2)o1`: the half-inhibitory concentration (IC50) is 10.5 µM.

As for `O=C(N/N=C/c1ccc(Cl)cc1Cl)c1ccc(-n2cnnn2)cc1`, the IC50 was > 80 µM (inactive).

Regarding `COc1ccc(-n2nnnc2S(=O)(=O)CC(=O)N2CCCCC2)cc1`, the IC50 is 2.25 µM.

Consider `Cc1cc(C)cc(N2C(=O)NC(=O)/C(=C\c3cccn3-c3ccccc3)C2=O)c1`, for which the half-maximal inhibitory concentration (IC50) is 16.4 µM.

Turning to `CCN(CC)CCOC(=O)c1ccc(NC(=O)COc2cc(=O)n(CC)c3ccccc23)cc1`, the IC50 was 43.8 µM (inactive).

Regarding `CNC(=O)CCc1nc(-c2ccc(C(C)(C)C)cc2)no1`, the IC50 is > 80 µM (inactive).

For the molecule `O=C(CCl)N(c1ccc(Cl)cc1)c1c[nH]c2ccccc12`, the IC50 was 0.85 µM.

Turning to `COc1cc(-c2[nH]nc3c2C(c2ccco2)C(C#N)=C(N)O3)cc(OC)c1OC` (stereo not drawn), the IC50 is 61 µM (inactive).
